For the experiment, the target named is Cyclin-dependent kinase 2/cyclin E1 (Homo sapiens, UniProt P24941). Nature of the experiment: Inhibition of human full length recombinant C-terminal 6His-tagged CDK2/N-terminal GST-tagged cyclin E1 expressed in baculovirus-infected Sf21 cells using 5-FAM- QSPKKG peptide as substrate preincubated with enzyme and ATP for 30 mins followed by substrate addition and measured after 20 hrs by fluorescence- based microfluidic mobility shift assay.

Structures are written as SMILES. Some results are limits rather than exact numbers.

As for `Cc1cc(CC(=O)Nc2cc([C@H]3CC[C@@H](OC(=O)N4CCC4(C)C)C3)[nH]n2)on1`, the IC50 was at most 100 nM.

As to `CC(C)NC(=O)O[C@@H]1CC[C@H](c2cc(NC(=O)Cc3ccccc3)n[nH]2)C1`, the IC50 was at most 100 nM.

Turning to `Cc1cc(CC(=O)Nc2cc([C@H]3CCC[C@@H](OC(=O)NC4(C)CC4)CC3)[nH]n2)on1`, the IC50 is at most 100 nM.

For the molecule `CC1(NC(=O)O[C@H]2CC[C@@H](c3cc(NC(=O)Cc4ccccc4)n[nH]3)C2)CC1`, the IC50 was at most 100 nM.

As to `Cc1ncc(CC(=O)Nc2cc([C@H]3CC[C@@H](OC(=O)NC(C)C)C3)[nH]n2)s1`, the IC50 is at most 100 nM.

On to `CC(C)NC(=O)O[C@@H]1CC[C@H](c2cc(NC(=O)c3ccnc4ncsc34)n[nH]2)C1`, for which the IC50 was at most 100 nM.

As for `COc1cc(CC(=O)Nc2cc([C@H]3CC[C@@H](OC(=O)NC(C)C)C3)[nH]n2)ccn1`, the IC50 is at most 100 nM.

As to `CC(C)NC(=O)O[C@@H]1CC[C@H](c2cc(NC(=O)Cc3ccccc3S(C)(=O)=O)n[nH]2)C1`, the IC50 was at most 100 nM.

For the molecule `COCc1cc(C(=O)Nc2cc([C@H]3CC[C@@H](OC(=O)N(C)C(C)C)C3)[nH]n2)n(C)n1`, the IC50 is at most 100 nM.

For `CC(C)NC(=O)O[C@@H]1CC[C@H](c2cc(NC(=O)c3ccnn3C)n[nH]2)C1`, the IC50 is at most 100 nM.

In the case of `CC(C)NC(=O)O[C@H]1CC[C@@H](c2cc(NC(=O)c3ccnn3C)n[nH]2)C1`, the IC50 was at most 100 nM.

In the case of `CC1(NC(=O)O[C@@H]2CC[C@H](c3cc(NC(=O)Cc4ccccc4)n[nH]3)C2)CC1`, the IC50 is at most 100 nM.
